Patent US10822348B2, “Inhibitors of Bruton's tyrosine kinase and methods of their use” (JANSSEN PHARMACEUTICA NV, priority 2015, dated 2020)

Target: unphosphorylated-BTK kinase domain (UP-BTK), GST-tagged human BTK (389-659aa) (Homo sapiens (Human), UniProt Q06187)
Assay: BTK kinase Lanthascreen binding assay
Procedure: BTK Kinase Lanthascreen Binding Assay:
A BTK kinase lanthascreen binding assay monitors compound binding to unphosphorylated-BTK kinase domain (UP-BTK), by competing with a fluorescent labeled tracer. […] Data were analyzed using Xlfit™ version 5.3 from ID Business Solutions (Guildford), Microsoft Excel add-in. pIC50 refers to the negative log of the IC50 in molar.

[1] = unphosphorylated-BTK kinase domain, 60 minutes incubation, pIC50 = negative log of the IC50 in molar
[2] = negative log of the IC50 in molar, 60 minutes incubation with 50 nM Tracer 236

unphosphorylated-BTK kinase domain (UP-BTK), GST-tagged human BTK (389-659aa), sequence (Q06187 389-659): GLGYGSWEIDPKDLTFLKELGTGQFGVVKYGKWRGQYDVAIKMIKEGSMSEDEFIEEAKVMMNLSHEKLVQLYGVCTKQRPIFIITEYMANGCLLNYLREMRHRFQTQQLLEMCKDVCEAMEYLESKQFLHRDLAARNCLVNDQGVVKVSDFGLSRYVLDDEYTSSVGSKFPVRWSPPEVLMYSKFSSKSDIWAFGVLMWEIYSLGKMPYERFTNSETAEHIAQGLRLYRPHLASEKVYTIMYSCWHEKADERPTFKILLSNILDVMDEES

Structure (SMILES) | BTK_I_binding pIC50 [1] | BTK_I_binding pIC50 [2]
CCOC(C)(C)/C=C(\C#N)C(=O)N1CCC[C@@H](NC(=O)c2sc3nccc4c3c2NC(=O)N4c2ccc(Oc3ccccc3)cc2C)C1 (single isomer, unassigned) [Example 480, (R,*E)-N-(1-(2-Cyano-4-ethoxy-4-methylpent-2-enoyl)piperidin-3-yl)-5-(*R)-(2-methyl-4-phenoxyphenyl)-4-oxo-4,5-dihydro-3H-1-thia-3,5,8-triazaacenaphthylene-2-carboxamide] | 7.2 | 
C=CC(=O)N1C[C@H](O)C[C@@H](NC(=O)c2sc3nccc4c3c2NC(=O)N4c2ccc(Oc3ccccc3)cc2C)C1 (relative stereo) [Example 483, N-((3R,5R)-1-Acryloyl-5-hydroxypiperidin-3-yl)-5-(*S)-(2-methyl-4-phenoxyphenyl)-4-oxo-4,5-dihydro-3H-1-thia-3,5,8-triazaacenaphthylene-2-carboxamide] | 8.4 | 
C=CC(=O)N[C@H]1COC[C@H]1NC(=O)c1sc2nccc3c2c1NC(=O)N3c1cnc(Oc2ccccc2)cc1C (stereo in doubt) [Example 745, N-((3*S,4*R)-4-Acrylamidotetrahydrofuran-3-yl)-5-(*S)-(4-methyl-6-phenoxypyridin-3-yl)-4-oxo-4,5-dihydro-3H-1-thia-3,5,8-triazaacenaphthylene-2-carboxamide] |  | 8.1
C=CC(=O)N1CCC[C@@H](NC(=O)c2sc3nccc4c3c2NC(=O)N4c2ccc(OC(C)C)cc2C)C1 (single isomer, unassigned) [Example 417, (R)—N-(1-Acryloylpiperidin-3-yl)-5-(*S)-(4-isopropoxy-2-methylphenyl)-4-oxo-4,5-dihydro-3H-1-thia-3,5,8-triazaacenaphthylene-2-carboxamide] | 5.9 | 
CCOC(C)(C)/C=C(\C#N)C(=O)N1CCC[C@@H](NC(=O)c2sc3nccc4c3c2NC(=O)N4c2ccc(Oc3ccccc3)cc2C)C1 (single isomer, unassigned) [Example 487, (R,E)-N-(1-(2-Cyano-4-ethoxy-4-methylpent-2-enoyl)piperidin-3-yl)-5-(*S)-(2-methyl-4-phenoxyphenyl)-4-oxo-4,5-dihydro-3H-1-thia-3,5,8-triazaacenaphthylene-2-carboxamide] | 7.6 | 

Results, then the compound that gave them:

BTK_I_binding pIC50 [1] | BTK_I_binding pIC50 [2] | Structure (SMILES)
 | 5.8 | C=CC(=O)N1CCC[C@@H](NC(=O)c2sc3nccc4c3c2NC(=O)N4c2ccc(OC3CCOCC3)cc2C)C1 (single isomer, unassigned) [Example 742, (R)—N-(1-Acryloylpiperidin-3-yl)-5-(*S)-(2-methyl-4-((tetrahydro-2H-pyran-4-yl)oxy)phenyl)-4-oxo-4,5-dihydro-3H-1-thia-3,5,8-triazaacenaphthylene-2-carboxamide]
 | 8.1 | C=CC(=O)N1CC[C@@H](NC(=O)c2sc3nccc4c3c2NC(=O)N4c2cnc(OC3CCCC3)cc2C)C1 (single isomer, unassigned) [Example 776, (R)—N-(1-Acryloylpyrrolidin-3-yl)-5-(*S)-(6-(cyclopentyloxy)-4-methylpyridin-3-yl)-4-oxo-4,5-dihydro-3H-1-thia-3,5,8-triazaacenaphthylene-2-carboxamide]
 | 8.1 | C=CC(=O)N1CCC[C@@H](NC(=O)c2sc3nccc4c3c2NC(=O)N4c2cnc(CC(C)C)cc2C)C1 (single isomer, unassigned) [Example 669, (R)—N-(1-Acryloylpiperidin-3-yl)-5-(*S)-(6-isobutyl-4-methylpyridin-3-yl)-4-oxo-4,5-dihydro-3H-1-thia-3,5,8-triazaacenaphthylene-2-carboxamide]
7.8 |  | C=CC(=O)N1CCC[C@@H](NC(=O)c2sc3nccc4c3c2NC(=O)N4c2ccc(OC(C)C)cc2C)C1 (single isomer, unassigned) [Example 418, (R)—N-(1-Acryloylpiperidin-3-yl)-5-(*R)-(4-isopropoxy-2-methylphenyl)-4-oxo-4,5-dihydro-3H-1-thia-3,5,8-triazaacenaphthylene-2-carboxamide]
